Results taken from patent US20210300940A1 (Merck Patent GmbH, priority 2018, published 2021).
Structures can show the parent of a compound that is named as a salt.

Assays:
[1] = molecular target: T1, TLR7 (Homo sapiens, UniProt Q9NYK1); assay: HEK/293 TLR7 Cell Assay; assay type: cell-based; settings: TLR7/NFKb HEK cells, R848 agonist 10 uM final concentration, Steady-Glo readout; read-out: TLR7 potency
T1 construct: expressed in transfected cells; host or cells: HEK/293 cells carrying TLR7 and an NF-kB luciferase reporter
T1 sequence (Q9NYK1 27-1049): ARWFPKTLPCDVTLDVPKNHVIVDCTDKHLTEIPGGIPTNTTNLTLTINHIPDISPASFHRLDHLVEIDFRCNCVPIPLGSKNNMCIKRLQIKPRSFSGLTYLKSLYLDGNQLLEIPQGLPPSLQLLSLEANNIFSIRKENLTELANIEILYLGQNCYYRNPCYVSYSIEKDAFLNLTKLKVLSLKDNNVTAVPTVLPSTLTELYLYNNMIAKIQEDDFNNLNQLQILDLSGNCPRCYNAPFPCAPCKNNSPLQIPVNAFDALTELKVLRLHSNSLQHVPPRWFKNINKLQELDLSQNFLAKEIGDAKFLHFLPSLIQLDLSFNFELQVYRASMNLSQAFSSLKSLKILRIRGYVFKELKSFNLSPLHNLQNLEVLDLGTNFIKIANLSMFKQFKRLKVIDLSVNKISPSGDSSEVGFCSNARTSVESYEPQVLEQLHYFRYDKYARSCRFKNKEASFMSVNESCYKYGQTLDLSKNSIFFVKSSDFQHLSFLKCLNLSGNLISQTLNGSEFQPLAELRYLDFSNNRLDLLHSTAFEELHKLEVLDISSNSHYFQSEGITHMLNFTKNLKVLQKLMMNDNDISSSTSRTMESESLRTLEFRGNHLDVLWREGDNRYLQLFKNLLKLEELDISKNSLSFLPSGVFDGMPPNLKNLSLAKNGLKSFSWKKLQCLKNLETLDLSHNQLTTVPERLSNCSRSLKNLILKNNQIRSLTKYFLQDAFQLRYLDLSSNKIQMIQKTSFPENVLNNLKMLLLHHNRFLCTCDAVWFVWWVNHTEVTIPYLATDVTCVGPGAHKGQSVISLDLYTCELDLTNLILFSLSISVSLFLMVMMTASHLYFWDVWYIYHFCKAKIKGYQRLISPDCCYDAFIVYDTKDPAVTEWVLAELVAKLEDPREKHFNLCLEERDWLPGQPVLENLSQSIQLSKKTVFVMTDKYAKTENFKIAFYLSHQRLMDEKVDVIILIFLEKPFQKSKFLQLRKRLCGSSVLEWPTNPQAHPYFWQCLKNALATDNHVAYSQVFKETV
Method in brief: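 Compounds added to HEK cells expressing TLR7 with an NFκB reporter 30 min ahead of 10 uM R848 challenge; luciferase signal (Steady-Glo) measured after 5 h, cells having been seeded 24 h earlier at 5000 per well.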

[2] = molecular target: T2, TLR8 (Homo sapiens, UniProt Q9NR97); assay: HEK/293 TLR8 Cell Assay; assay type: cell-based; settings: HEK cells, R848 agonist 30 uM final concentration, Steady-Glo readout; read-out: TLR8 potency
T2 construct: expressed in transfected cells; host or cells: HEK/293 reporter cells (NF-kB luciferase)
T2 sequence (Q9NR97 27-1041): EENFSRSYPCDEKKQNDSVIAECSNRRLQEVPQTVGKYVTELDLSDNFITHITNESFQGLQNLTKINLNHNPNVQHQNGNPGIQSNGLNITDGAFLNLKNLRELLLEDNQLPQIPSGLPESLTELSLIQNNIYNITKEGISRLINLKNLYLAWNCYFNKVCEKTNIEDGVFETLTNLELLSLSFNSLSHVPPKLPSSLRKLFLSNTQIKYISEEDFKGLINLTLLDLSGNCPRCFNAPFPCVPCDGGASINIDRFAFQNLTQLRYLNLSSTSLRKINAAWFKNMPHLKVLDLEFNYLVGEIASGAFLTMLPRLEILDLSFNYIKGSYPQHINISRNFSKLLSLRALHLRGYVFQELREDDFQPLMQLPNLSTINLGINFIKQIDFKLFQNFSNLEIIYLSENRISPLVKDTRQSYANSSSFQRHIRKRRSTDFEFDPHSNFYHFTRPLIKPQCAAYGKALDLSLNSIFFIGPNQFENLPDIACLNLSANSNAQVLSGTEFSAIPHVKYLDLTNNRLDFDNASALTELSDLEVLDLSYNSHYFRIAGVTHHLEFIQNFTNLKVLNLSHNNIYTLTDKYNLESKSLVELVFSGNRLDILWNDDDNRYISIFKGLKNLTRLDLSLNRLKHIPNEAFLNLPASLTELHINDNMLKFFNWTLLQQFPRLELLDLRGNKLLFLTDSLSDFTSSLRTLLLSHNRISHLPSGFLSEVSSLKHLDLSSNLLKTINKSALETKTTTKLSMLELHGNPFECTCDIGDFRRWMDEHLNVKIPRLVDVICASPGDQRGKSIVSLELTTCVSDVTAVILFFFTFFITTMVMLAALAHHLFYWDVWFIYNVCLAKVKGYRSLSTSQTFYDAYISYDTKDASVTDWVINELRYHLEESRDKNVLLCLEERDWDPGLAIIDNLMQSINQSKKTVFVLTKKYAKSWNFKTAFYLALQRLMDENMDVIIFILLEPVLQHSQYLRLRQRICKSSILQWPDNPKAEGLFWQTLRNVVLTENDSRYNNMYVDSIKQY

| IC50 [1] [nM] | IC50 [2] [nM] | SMILES |
| --- | --- | --- |
| 75 to 150 | < 75 | C[C@H]1C[C@@H](NC(=O)CC2CCN(CCO)CC2F)CN(c2cnc(C#N)c3ncccc23)C1 (stereo partly drawn) [Example 148, N-[(3R,5S)-1-(8-Cyano-[1,7]naphthyridin-5-yl)-5-methyl-piperidin-3-yl]-2-[3-fluoro-1-(2-hydroxy-ethyl)-piperidin-4-yl]-acetamide] |
| < 75 | < 75 | C[C@H]1C[C@@H](NCCC2CCNC2=O)CN(c2ccc(C(F)(F)F)c3ncccc23)C1 (stereo partly drawn) [Example 30, 3-{2-[(3R,5S)-5-Methyl-1-(8-trifluoromethyl-quinolin-5-yl)-piperidin-3-ylamino]-ethyl}-pyrrolidin-2-one] |
| < 75 | < 75 | C[C@H]1C[C@@H](N)CN(c2cnc(C#N)c3ncccc23)C1 [Example 8, 5-((3R,5S)-3-Amino-5-methyl-piperidin-1-yl)-[1,7]naphthyridine-8-carbonitrile hydrochloride] |
| < 75 | < 75 | C[C@H]1C[C@@H](NS(=O)(=O)NC2CCN(C)CC2)CN(c2ccc(C(F)(F)F)c3ncccc23)C1 [Example 200, N-(1-methylpiperidin-4-yl){[(3R,5S)-5-methyl-1-[8-(trifluoromethyl)quinolin-5-yl]piperidin-3-yl]amino}sulfonamide] |
| 75 to 150 | > 150 | C[C@@H]1CN(c2ccc(C#N)c3nccnc23)C[C@H](CN2CCC(F)(F)C2)O1 [Example 215, 8-[(2S,6R)-2-(3,3-Difluoro-pyrrolidin-1-ylmethyl)-6-methyl-morpholin-4-yl]-quinoxaline-5-carbonitrile] |
| < 75 | < 75 | C[C@H]1C[C@@H](NCC(=O)N2CC(O)C2)CN(c2ccc(C(F)(F)F)c3ncccc23)C1 [Example 51, 1-(3-Hydroxy-azetidin-1-yl)-2-[(3R,5S)-5-methyl-1-(8-trifluoromethyl-quinolin-5-yl)-piperidin-3-ylamino]-ethanone] |
| > 150 | < 75 | C[C@H]1C[C@@H](NC(=O)[C@@H](C)N2CCC(O)CC2)CN(c2ccc(C(F)(F)F)c3ncccc23)C1 (single isomer, unassigned) [Example 105] |
| < 75 | < 75 | C[C@@H]1CN(c2cnc(C#N)c3ncccc23)C[C@H](C(=O)NC2CCN(CC3CC3)C2)O1 (stereo partly drawn) [Example 272, (2R,6R)-4-(8-Cyano-[1,7]naphthyridin-5-yl)-6-methyl-morpholine-2-carboxylic acid (1-cyclopropylmethyl-pyrrolidin-3-yl)-amide] |
| < 75 | < 75 | CONC(=O)CCN[C@@H]1C[C@H](C)CN(c2ccc(C(F)(F)F)c3ncccc23)C1 [Example 55, N-Methoxy-3-[(3R,5S)-5-methyl-1-(8-trifluoromethyl-quinolin-5-yl)-piperidin-3-ylamino]-propionamide] |
| > 150 | > 150 | C[C@H]1C[C@@H](NCC(O)CO)CN(c2cnc(C#N)c3ncccc23)C1 (stereo partly drawn) [Example 35, 5-[(3R,5S)-3-(2,3-Dihydroxy-propylamino)-5-methyl-piperidin-1-yl]-naphthyridine-8-carbonitrile] |
| < 75 | < 75 | C[C@H]1C[C@@H](NCC(C)(C)O)CN(c2ccc(C(F)(F)F)c3ncccc23)C1 [Example 17, 2-Methyl-1-[(3R,5S)-5-methyl-1-(8-trifluoromethyl-quinolin-5-yl)-piperidin-3-ylamino]-propan-2-ol] |
| > 150 | < 75 | C[C@H]1C[C@@H](OCCN2CCCCC2)CN(c2ccc(C(F)(F)F)c3ncccc23)C1 (racemic) [Example 3, 5-[cis-3-methyl-5-[2-(piperidin-1-yl)ethoxy]piperidin-1-yl]-8-(trifluoromethyl)quinolone] |
| < 75 | < 75 | C[C@@H]1CN(c2cnc(C#N)c3ncccc23)C[C@H](Cn2cc(C(=O)O)cn2)O1 [Example 365, 1-[(2R,6R)-4-(8-Cyano-[1,7]naphthyridin-5-yl)-6-methyl-morpholin-2-ylmethyl]-1H-pyrazole-4-carboxylic acid] |

| SMILES | IC50 [1] [nM] | IC50 [2] [nM] |
| --- | --- | --- |
| C[C@@H]1CN(c2ccc(C#N)c3nccnc23)C[C@H](C(=O)N[C@H]2CCN(CC3CC3)C2)O1 (single isomer, unassigned) [Example 322] | < 75 | < 75 |
| C[C@@H]1CN(c2ccc(C#N)c3nccnc23)C[C@H](C(=O)NC[C@@H](O)CO)O1 [Example 233, (2R,6R)-4-(8-Cyano-quinoxalin-5-yl)-6-methyl-morpholine-2-carboxylic acid ((R)-2,3-dihydroxy-propyl)-amide] | < 75 | < 75 |
| C[C@H]1C[C@@H](NC(=O)Cc2cnn(C)c2)CN(c2cc(F)c(C#N)c3ncccc23)C1 [Example 58, N-[(3R,5S)-1-(8-Cyano-7-fluoro-quinolin-5-yl)-5-methyl-piperidin-3-yl]-2-(1-methyl-1H-pyrazol-4-yl)-acetamide] | > 150 | 75 to 150 |
| N#Cc1ccc(N2C[C@@H](C(=O)N3C[C@@H](N)C4(CC4)C3)O[C@@H](C(F)(F)F)C2)c2nccnc12 (single isomer, unassigned) [Example 312] | < 75 | > 150 |
| CCS(=O)(=O)NCCN[C@@H]1C[C@H](C)CN(c2ccc(C#N)c3nccnc23)C1 [Example 46, Ethane sulfonic acid {2-[(3R,5S)-1-(8-cyano-quinoxalin-5-yl)-5-methyl-piperidin-3-ylamino]-ethyl}-amide] | 75 to 150 | < 75 |
| C[C@H]1C[C@@H](NC(=O)C[C@H](O)CN(C)C)CN(c2ccc(C#N)c3nccnc23)C1 [Example 210, (3S)—N-[(3R,5S)-1-(8-cyanoquinoxalin-5-yl)-5-methylpiperidin-3-yl]-4-(dimethylamino)-3-hydroxybutanamide] | < 75 | < 75 |
| C[C@@H]1CN(c2ccc(C#N)c3nccnc23)C[C@H](C(=O)NC[C@@H](O)C(F)(F)F)O1 [Example 250, (2R,6R)-4-(8-Cyano-quinoxalin-5-yl)-6-methyl-morpholine-2-carboxylic acid ((R)-3,3,3-trifluoro-2-hydroxy-propyl)-amide] | < 75 | < 75 |
| C[C@H]1C[C@@H](NC(=O)CC2(F)CCNCC2)CN(c2ccc(C#N)c3nccnc23)C1 [Example 114, N-[(3R,5S)-1-(8-cyanoquinoxalin-5-yl)-5-methylpiperidin-3-yl]-2-(4-fluoropiperidin-4-yl)acetamide] | < 75 | < 75 |
| N#Cc1ccc(N2C[C@H](NCC3CCCNC3)C[C@H](C(F)(F)F)C2)c2cccnc12 (stereo partly drawn) [Example 152, 5-{(3R,5S)-3-[(Piperidin-3-ylmethyl)-amino]-5-trifluoromethyl-piperidin-1-yl}-quinoline-8-carbonitrile] | 75 to 150 | 75 to 150 |
